Common to all, as to assay type: in vivo
Test [1] concerns wheat (Triticum aestivum). Put plainly: Test A1 postemergence, wheat. The settings on record: Postemergence. In a few lines:
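Plants grown in pots of loam/sand mix; preemergence = soil-directed spray on seeded pots, postemergence = spray at 1–2 leaves, height 2–10 cm; test chemicals formulated in non-phytotoxic solvent with surfactant.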

The subject of test [2] is Oat, Wild (wild oat, Avena fatua). Briefly: Test A1 preemergence, Oat, Wild. The method, boiled down: (§1)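 Seeds were first planted into a blend of loam soil and sand and given a preemergence directed soil spray. In parallel, pots of the same soil were sown for postemergence application once plants reached 2 to 10 cm and the one- to two-leaf stage. Both used surfactant-containing non-phytotoxic solvent formulations.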

For test [3], the system named is ducksalad (Heteranthera limosa). Put plainly: Test B1 flooded paddy test, ducksalad. The conditions noted are these: 250 g ai/ha, Flood, applied to paddy water, 2-leaf stage, visually evaluated after 10 to 14 days. From the text:
(§2) A dash (-) response means no test result.

Test [4] relates to barnyardgrass (Echinochloa crus-galli). Put plainly: Test B1 flooded paddy test, barnyardgrass. The settings on record: 250 g ai/ha, Flood, applied to paddy water, 2-leaf stage, visually evaluated after 10 to 14 days.
Description: as §2

For test [5], the system named is Foxtail, Giant (giant foxtail, Setaria faberi). Briefly: Test A1 preemergence, Foxtail, Giant. The method, boiled down:
as §1

A further test relates to kochia (Bassia scoparia). Briefly: Test A1 preemergence, kochia. In a few lines: as §1
Another test has as its system rice (Oryza sativa). Briefly: Test B1 flooded paddy test, rice. The settings on record: 250 g ai/ha, Flood, applied to paddy water, 2-leaf stage, visually evaluated after 10 to 14 days.
Description: as §2

Setting [6] is: 31 g ai/ha, 0 to 100 scale (0 no effect, 100 complete control), 10 days.
[7] abbreviates: 31 g ai/ha, 0 to 100 scale (0 no effect, 100 complete control).
Where [8] appears, read: 125 g ai/ha, 0 to 100 scale, 0 no effect, 100 complete control.

Molecules are shown by their SMILES.

`CCOC(=O)N(c1cc(C(=O)N2CCOCC2)c(C)cc1C)S(=O)(=O)C(F)(F)F` [Compound 363]: the “Plant response rating, Wheat” value came out at 40 in test [1] (setting [6]) and 60 in test [1] (125 g ai/ha, 0 to 100 scale). The “Plant response rating, Oat, Wild” value is given as 30 in test [2] (setting [7]) and 70 in test [2] (setting [8]). Further, the “Plant response rating, Ducksalad (0 to 100 scale, 0 is no effect, 100 is complete control)” value in test [3] is listed as 70. In test [4], the “Plant response rating, Barnyardgrass (0 to 100 scale, 0 is no effect, 100 is complete control)” value came out at 50. The “Plant response rating, Foxtail, Giant” value is listed as 90 in test [5] (setting [7]) and 100 in test [5] (setting [8]). Also, the “Plant response rating, Kochia” value amounted to 80 in the test with kochia (Bassia scoparia) (setting [7]) and 100 in the test with kochia (Bassia scoparia) (setting [8]). For the same compound, the “Plant response rating, Rice (0 to 100 scale, 0 is no effect, 100 is complete control)” value with rice (Oryza sativa) is on record as 25.

As for `Cc1cc(C)c(N(COC(=O)C(C)(C)C)S(=O)(=O)C(F)(F)F)cc1C(=O)N1CCC(c2ccccc2)CC1` [Compound 364], the “Plant response rating, Wheat” value in test [1] (setting [6]) is recorded as 0; in test [1] (125 g ai/ha, 0 to 100 scale) it was 0. For the same compound, the “Plant response rating, Oat, Wild” value in test [2] (setting [7]) and in test [2] (setting [8]) was 0 throughout. Moreover, the “Plant response rating, Ducksalad (0 to 100 scale, 0 is no effect, 100 is complete control)” value in test [3] came out at 0. The “Plant response rating, Barnyardgrass (0 to 100 scale, 0 is no effect, 100 is complete control)” value in test [4] is 0. In addition, the “Plant response rating, Foxtail, Giant” value in test [5] (setting [7]) and in test [5] (setting [8]) was 0 in each case. The “Plant response rating, Kochia” value in the test with kochia (Bassia scoparia) (setting [7]) and in the test on kochia (Bassia scoparia) (setting [8]) was 0 throughout. Moreover, the “Plant response rating, Rice (0 to 100 scale, 0 is no effect, 100 is complete control)” value in the test on rice (Oryza sativa) was found to be 0.

As to `CCOC(=O)N(c1cc(C(=O)N2CCC(c3ccccc3)CC2)c(C)cc1C)S(=O)(=O)C(F)(F)F` [Compound 365], the “Plant response rating, Wheat” value in test [1] (setting [6]) came to 0; in test [1] (125 g ai/ha, 0 to 100 scale), 20. The “Plant response rating, Oat, Wild” value in test [2] (setting [7]) and in test [2] (setting [8]) was 0 in each case. For the same compound, the “Plant response rating, Ducksalad (0 to 100 scale, 0 is no effect, 100 is complete control)” value in test [3] is on record as 25. Further, the “Plant response rating, Barnyardgrass (0 to 100 scale, 0 is no effect, 100 is complete control)” value in test [4] is recorded as 15. Also, the “Plant response rating, Foxtail, Giant” value in test [5] (setting [7]) is 0; in test [5] (setting [8]), 30. The “Plant response rating, Kochia” value with kochia (Bassia scoparia) (setting [7]) and in the test with kochia (Bassia scoparia) (setting [8]) was 0 in each case. Moreover, the “Plant response rating, Rice (0 to 100 scale, 0 is no effect, 100 is complete control)” value in the test with rice (Oryza sativa) came out at 15.

(Values after US20230278972A1, “SUBSTITUTED HALOALKYL SULFONANILIDE HERBICIDES” (FMC Corporation, priority 2020, published 2023).)
